Assay [1] has as its target T1, 3-hydroxy-3-methylglutaryl-coenzyme A reductase (Rattus norvegicus, UniProt P51639).
T1 sequence (P51639 whole entry): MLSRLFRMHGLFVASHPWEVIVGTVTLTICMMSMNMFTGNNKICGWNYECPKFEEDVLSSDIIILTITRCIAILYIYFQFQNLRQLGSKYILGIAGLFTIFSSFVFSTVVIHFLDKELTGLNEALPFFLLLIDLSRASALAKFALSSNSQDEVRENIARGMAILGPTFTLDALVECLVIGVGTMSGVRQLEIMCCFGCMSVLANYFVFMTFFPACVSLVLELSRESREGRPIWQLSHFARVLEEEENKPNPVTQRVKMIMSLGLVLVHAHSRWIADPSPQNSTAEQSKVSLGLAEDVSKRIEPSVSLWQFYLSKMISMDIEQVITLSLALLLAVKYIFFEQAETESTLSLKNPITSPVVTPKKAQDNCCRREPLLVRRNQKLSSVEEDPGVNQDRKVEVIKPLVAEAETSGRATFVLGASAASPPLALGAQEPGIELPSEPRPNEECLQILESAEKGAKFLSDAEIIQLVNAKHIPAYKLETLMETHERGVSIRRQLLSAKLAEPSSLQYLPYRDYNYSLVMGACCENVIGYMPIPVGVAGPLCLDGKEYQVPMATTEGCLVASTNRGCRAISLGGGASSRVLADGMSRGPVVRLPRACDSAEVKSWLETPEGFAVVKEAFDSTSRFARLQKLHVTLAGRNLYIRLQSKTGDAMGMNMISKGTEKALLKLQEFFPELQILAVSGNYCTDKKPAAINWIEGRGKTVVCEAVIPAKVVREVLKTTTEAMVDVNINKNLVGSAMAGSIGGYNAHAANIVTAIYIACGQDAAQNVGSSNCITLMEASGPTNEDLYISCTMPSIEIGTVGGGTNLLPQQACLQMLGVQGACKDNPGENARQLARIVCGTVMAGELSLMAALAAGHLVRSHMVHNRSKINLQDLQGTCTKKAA
Description: Inhibition of rat microsomal HMG-CoA reductase activity by 50%. Conditions: read-out: I50.

In assay [2] the test system is Rattus norvegicus. Description: Inhibitory activity for de novo cholesterol synthesis from [14C]acetate was determined in rat after intravenous administration (in vivo). Format: functional.
Assay [3] is filed under the species Rattus norvegicus. Description: Compound was tested for 50% inhibition of cholesterol synthesis in isolated rat hepatocytes. Format: functional. Conditions: Hepatocyte, read-out: I50.
Assay [4] concerns Rattus norvegicus. Briefly: Inhibitory activity for de novo cholesterol synthesis from [14C]acetate was determined in rat after oral administration (in vivo). Format: functional.
The species entered for a further assay is Homo sapiens. Description: Compound was tested for 50% inhibition of cholesterol synthesis in human skin fibroblasts. Conditions: read-out: I50. Format: functional.

Bounds are passed on as bounds.

Consider `O=C(O)C[C@H](O)CP(=O)(O)C#CC1=C(c2ccc(F)cc2)c2ccccc2C12CC2`, for which the IC50 in assay [1] turned out to be 70 nM.

As to `Cc1cc(C)c(C#CP(=O)(O)C[C@@H](O)CC(=O)O)c(-c2ccc(F)c(C)c2)c1`, the IC50 in assay [1] came to 297 nM.

On to `Cc1cc(C)c(/C=C/P(=O)(O)C[C@@H](O)CC(=O)O)c(-c2ccc(F)c(C)c2)c1`, for which the IC50 in assay [1] came to 6.7 nM.

On to `Cc1cc(-c2ccc(F)c(C)c2)c(COP(=O)(O)C[C@@H](O)CC(=O)O)c(C(C)C)c1`, for which the IC50 in assay [1] was 1.2 nM.

Regarding `O=C(O)C[C@H](O)CP(=O)(O)C#CC1=C(c2ccc(F)cc2)c2ccccc2C12CCCCC2`, in assay [1], the IC50 is 3 nM.

On to `CC[C@H](C)C(=O)O[C@H]1C[C@H](O)C=C2C=C[C@H](C)[C@H](CC[C@@H](O)C[C@@H](O)CC(=O)[O-])[C@H]21.[Na+]` [PRAVASTATIN SODIUM], for which the IC50 in assay [1] was determined as 26 nM; in the assay listed under Rattus norvegicus [3], 100 nM; in the assay listed under Homo sapiens it was 3100 nM. In addition, the results for the ED50 with Rattus norvegicus [2] and in the assay with Rattus norvegicus [4] were 0.053 mg/kg and 0.75 mg/kg, respectively.

Turning to `CC(C)c1c(CCP(=O)(O)C[C@@H](O)CC(=O)O)n(-c2ccc(F)cc2)c2ccccc12`, the IC50 in assay [1] worked out at 120 nM.

On to `Cc1cc(-c2ccc(F)c(C)c2)c(CCP(=O)(O)C[C@@H](O)CC(=O)O)c(C(C)C)c1`, for which the IC50 in assay [1] was 3.8 nM.

On to `Cc1cc(C)c(CCCP(=O)(O)C[C@@H](O)CC(=O)O)c(-c2ccc(F)c(C)c2)c1`, for which the IC50 in assay [1] came to 150000 nM.

On to `CCc1c(CCP(=O)(O)C[C@@H](O)CC(=O)O)n(-c2ccc(F)cc2)c2ccccc12`, for which the IC50 in assay [1] is 13 nM.

Take `CC(C)n1c(C#CP(=O)(O)C[C@@H](O)CC(=O)O)c(-c2ccc(F)cc2)c2ccccc21`: in assay [1], the IC50 was found to be 6 nM.

Take `Cc1cc(C)c(CP(=O)(O)C[C@@H](O)CC(=O)O)c(-c2ccc(F)c(C)c2)c1`: in assay [1], the IC50 was 89300 nM.

Turning to `Cc1cc(C)c(CCP(=O)(O)C[C@@H](O)CC(=O)O)c(-c2ccc(F)c(C)c2)c1`, the IC50 was 15 nM in assay [1], 85 nM in the assay listed under Rattus norvegicus [3] and 64000 nM in the assay listed under Homo sapiens. Besides, the median effective dose (ED50) (in general, the midpoint of the dose-response relation) in the assay on Rattus norvegicus [2] worked out at 0.05 mg/kg; in the assay on Rattus norvegicus [4], 6.7 mg/kg.

Consider `COP(=O)(C[C@@H](O)CC(=O)O)OCc1c(C)cc(C)cc1-c1ccc(F)c(C)c1` (stereo partly specified), for which the IC50 in assay [1] stood at 21600 nM.

As to `CC[C@H](C)C(=O)O[C@H]1C[C@@H](C)C=C2C=C[C@H](C)[C@H](CC[C@@H](O)C[C@@H](O)CC(=O)[O-])[C@H]21.[Na+]`, the ED50 was 0.033 mg/kg in the assay with Rattus norvegicus [2] and 0.4 mg/kg in the assay with Rattus norvegicus [4]. The values for the IC50 in the assay filed under Rattus norvegicus [3] and in the assay listed under Homo sapiens were 146 nM and 19 nM, respectively.

As to `Cc1cc(-c2ccc(F)c(C)c2)c(C#CP(=O)(O)C[C@@H](O)CC(=O)O)c(C(C)C)c1`, the IC50 in assay [1] stood at 8.5 nM.

On to `CC(C)c1c(/C=C/P(=O)(O)C[C@@H](O)CC(=O)O)n(-c2ccc(F)cc2)c2ccccc12`, for which, in assay [1], the IC50 came to 1.9 nM.

`O=C(O)C[C@H](O)CP(=O)(O)/C=C/C1=C(c2ccc(F)cc2)c2ccccc2C12CCCC2`: the IC50 in assay [1] is 2.1 nM.

`CCc1c(C#CP(=O)(O)C[C@@H](O)CC(=O)O)n(-c2ccc(F)cc2)c2ccccc12`: the IC50 in assay [1] was determined as 87.5 nM.

As for `COP(=O)(C[C@@H](O)CC(=O)O)NCc1c(C)cc(C)cc1-c1ccc(F)c(C)c1` (stereo partly specified), the IC50 in assay [1] was found to be 70500 nM.

Turning to `CC(C)n1c(CCP(=O)(O)C[C@@H](O)CC(=O)O)c(-c2ccc(F)cc2)c2ccccc21`, in assay [1], the IC50 stood at 24 nM.

`CC(C)n1c(/C=C/P(=O)(O)C[C@@H](O)CC(=O)O)c(-c2ccc(F)cc2)c2ccccc21`: the IC50 in assay [1] worked out at 26 nM.

Regarding `Cc1cc(C)c(/C=C\P(=O)(O)C[C@@H](O)CC(=O)O)c(-c2ccc(F)c(C)c2)c1`, the IC50 in assay [1] was 3000 nM.

For the compound `O=C(O)C[C@H](O)CP(=O)(O)C#CC1=C(c2ccc(F)cc2)c2ccccc2C12CCCC2`, the results for the IC50 (in assay [1]; in the assay filed under Rattus norvegicus [3]; in the assay listed under Homo sapiens) were 2.8 nM, 245 nM and 11000 nM, respectively. Also, the ED50 is 0.027 mg/kg with Rattus norvegicus [2] and 0.38 mg/kg in the assay with Rattus norvegicus [4].

As to `Cc1cc(C)c(COP(=O)(O)C[C@@H](O)CC(=O)O)c(-c2ccc(F)c(C)c2)c1`, the figures for the IC50 (in assay [1]; in the assay filed under Rattus norvegicus [3]; in the assay filed under Homo sapiens) were 162 nM, 260 nM and 327000 nM, respectively. Also, the ED50 with Rattus norvegicus [2] was 0.14 mg/kg; in the assay with Rattus norvegicus [4], more than 10 mg/kg.

With `COP(=O)(CCc1c(C)cc(C)cc1-c1ccc(F)c(C)c1)C[C@@H](O)CC(=O)O` (stereo partly specified), the IC50 in assay [1] was determined as 4600 nM.

With `Cc1cc(C)c(OCP(=O)(O)C[C@@H](O)CC(=O)O)c(-c2ccc(F)c(C)c2)c1`, the IC50 in assay [1] is 4500 nM.

For the compound `CC(C)c1c(C#CP(=O)(O)C[C@@H](O)CC(=O)O)n(-c2ccc(F)cc2)c2ccccc12`, the IC50 in assay [1] turned out to be 2.2 nM; in the assay listed under Rattus norvegicus [3] it was 93 nM; in the assay filed under Homo sapiens it was 8900 nM. The ED50 turned out to be 0.09 mg/kg in the assay on Rattus norvegicus [2] and 1.1 mg/kg in the assay with Rattus norvegicus [4].

(Values after ChEMBL document CHEMBL1125000, “Phosphorus-containing inhibitors of HMG-CoA reductase. 1. 4-[(2-arylethyl)hydroxyphosphinyl]-3-hydroxy-butanoic acids: a new class of cell-selective inhibitors of cholesterol biosynthesis” (J Med Chem, 1990).)
